These results are taken from article PMC7363885, “Fluorescent artificial receptor-based membrane assay (FARMA) for spatiotemporally resolved monitoring of biomembrane permeability” (Communications Biology, 2020).

For one data set, the system named is FAR-1. Briefly: Fluorescence titration, FAR•analyte complex formation in homogeneous solution. Type of data set: binding. The following applies: FAR-1; 10 mM HEPES buffer (pH 7); 1:1 binding model; error estimate ≤ 20%. The method, then:
Fluorescence titrations were carried out in aqueous HEPES buffer (10 mM, pH 7, 22 °C) unless stated otherwise. To a solution of the FAR (typically at 10–30 μM) was stepwise added a solution of the analyte (typically up to 2 mM) and the fluorescence spectra were recorded. The normalized emissions at 450 nm (FAR-1) or at 370 nm (FAR-2) were fitted with an equation for a 1 : 1 binding by a least-square fit. The resulting affinity constants are reported in Supplementary Table 1. Representative titration plots are shown in Supplementary Fig. 1. Note that the high CB8-dye binding affinities correspond to a near quantitative degree of host-dye complexation, i.e., quantitative formation of the FAR, such that the subsequent binding of the analyte can be treated independently.
Regarding `Oc1ccccc1O` [1,2-dihydroxybenzene], the Ka is on record as 20 10^3 M−1.
Regarding `CCOc1ccc(O)cc1` [4-ethoxyphenol], the Ka is on record as 1 10^3 M−1.
The same measure, in the same setting: under `CCc1ccc(O)cc1` [4Et-phenol, 4-ethylphenol] stands 1.2 10^3 M−1; under `O=C1CCC(=O)N1c1ccccc1` [N-phenylsuccinimide], 30 10^3 M−1; under `N[C@@H](Cc1ccccc1)C(=O)O` [Phe, phenylalanine], 5 10^3 M−1.
On the same count and under the same terms, under `NC(=O)C(N)Cc1c[nH]c2ccccc12` (stereo not shown) [TrpNH2, tryptophanamide] stands 460 10^3 M−1; under `COC(=O)[C@@H](N)Cc1c[nH]c2ccccc12` [TrpOMe, tryptophan methyl ester], 14 10^3 M−1.
On the same count and under the same terms, under `CNC[C@H](O)c1ccc(O)c(O)c1` [adrenaline] stands < 1 10^3 M−1; under `c1ccc2[nH]cnc2c1` [benzimidazole], 7.5 10^3 M−1.
For `NCCc1ccc(O)c(O)c1` [dopamine], the Ka is 0.10 10^3 M−1.
On the same count and under the same terms, under `c1ccc2ccccc2c1` [naphthalene] stands > 50 10^3 M−1; under `NCCc1ccccc1` [phenethylamine], 8 10^3 M−1; under `OC[C@H]1O[C@@H](Oc2ccccc2)[C@H](O)[C@@H](O)[C@H]1O` [phenyl-β-D-galactopyranoside], 30 10^3 M−1.
Same read-out and setting: under `CCC(=O)Nc1ccc(Cl)c(Cl)c1` [propanil] stands 8 10^3 M−1.
On to `CC(C)NCC(O)COc1cccc2ccccc12` (stereo not shown) [propranolol, reference compound], for which the Ka is reported as 3 10^3 M−1.
As for `C=C(C)[C@H]1Cc2c(ccc3c2O[C@@H]2COc4cc(OC)c(OC)cc4[C@@H]2C3=O)O1` [rotenone], the Ka is on record as 4.8 10^3 M−1.

The same data set, now with this note: pH 7.
The molecule `Oc1ccccc1` [Phenol, phenol] returned a Ka of 56.

Tested on in a further data set: not listed separately
Briefly: Dye displacement membrane assay (liposome-encapsulated host•dye ensembles).
Settings: not given
The source says:
Supplementary Figure 13 | Graphical representation of membrane assays using dye displacement for signaling. Diffusion of analytes through a lipid membrane is detected by displacement of the dye from (a) a host•dye or (b) a host•dye•quencher complex, leading to reduction or enhancement in emission intensity.
Supplementary Figure 14 | Membrane permeation monitoring of analytes by dye displacement. (a) Time-resolved changes in fluorescence intensity of CB7•BE-loaded liposomes (λexc = 347 nm, λobs = 500 nm) upon addition of the membrane-permeable analyte tyramine and membrane destabilizing peptide melittin.
(b) Evolution of fluorescence intensity after addition of dimethylbenzylamine (DMBA) to CB7•PAL-loaded liposomes (λexc = 347 nm, λobs = 500 nm). (c) Fluorescence response after addition of the […]
tryptophan to liposomes loaded with CB8•MV•2,6-ANS (λexc = 380 nm, λobs = 463 nm). […]
Combing equations S1 and S2, one arrives at Papp = kp∙(r/3) = kobs/canalyte∙cFAR∙(r/3) (equation 1 in main text)
Dye displacement membrane assay
Dye displacement membrane assays rely on selective encapsulation of reporter pairs inside liposomes and the reversible interaction between the receptor and the translocated analyte. To conduct the assay, liposomes containing the chemosensing ensemble composed of a macrocyclic host and a dye are prepared and purified, such that a subsequently added analyte affects the dye fluorescence only if it can enter the vesicle and displaces the dye from the macrocycle. Until now, only the dye displacement has been used as the signaling mechanism for tandem membrane assays,3, 4 whereby the competitive displacement of the dye from such host•dye complexes upon analyte addition restores the fluorescence features of the dye in solution, Supplementary Figures 13 - 14.
Specifically, this signaling mechanism has been mostly employed with macrocyclic host s with cavity space that is capable o f forming 1:1 complex es, e.g., cucurbit[7]uril (CB7) and the dyes berberine (BER) or palmatine (PAL), see Supplementary Figure 13a, or with p-sulfonato calix[4]arene (CX4) and lucigenin.3,4 Expanding the repertoire of chemosensors for tandem membrane assay s, we exploit herein also the ability of a larger macrocyclic host such as cucurbit[8]uril (CB8) to form 1:1:1 ternary complexes,5-7 and utilize here the quencher methyl viologen (MV) in combination with the fluorescent dyes 5-hydroxy tryptophan (5HO-Trp), 2-anilinonaphthalene -6-sulfonic acid (2,6-ANS) or dapoxyl sulfonic acid, sodium salt (DapoxS), Supplementary Figure 13b. Upon addition of an analyte, the fluorescent dye, the quencher or both the fluorescent dye and quencher are displaced from the CB8 cavity, which in each case is reflected by an increase in the emission intensity of the dye (switch -on displacement assay), Supplementary Figures 14- […]
The dye displacement signal strategy has two important disadvantages compared to the preferred fluorescent artificial receptor (FAR) assays:
(i) The dye displacement strategy is limited to strongly binding analytes, i.e., K(analyte) ≥ K(dye), otherwise a large excess concentration of analyte is needed to generate significant
On to `O=C(O)C1C2CC3CC(C2)CC1C3` (stereo not shown) [2-adamantyl-carboxylate], for which the “membrane permeability (in words)” value is recorded as “membrane-permeable, albeit at a slower rate”.

The same data set, now with this note: dye displacement, CB7•BE-, CB8•MV•5OH-Trp- or CB8•MV•2,6-ANS-loaded liposomes.
Regarding `N[C@@H](Cc1ccccc1)C(=O)O` [Phe, phenylalanine], the “membrane permeability (in words)” value is recorded as “membrane impermeable”.
`NCCCCCN` [cadaverine]: the “membrane permeability (in words)” value is on record as “membrane impermeable”.
Still for that read-out and setting: under `CC(C)NCC(O)COc1cccc2ccccc12` (stereo not shown) [propranolol, reference compound] stands “membrane permeable”; under `NCCCNCCCCNCCCN` [spermine], “membrane impermeable”.
The same measure, in the same setting: under `NCCc1ccc(O)cc1` [tyramine] stands “membrane-permeable”.

Tested on in the next data set: not listed separately
The data set is described as follows: FARMA: permeation of analytes into FAR-loaded liposomes (fluorescence, cuvette or stopped-flow). The following applies: FARMA with FAR-loaded liposomes or GUVs. The source says:
Elementary physical parameters, such as permeability coefficients, can be extracted from the full kinetic FARMA data. This kinetic profile → parameter mapping requires some assumptions to be made in regard to the permeation mechanism. We applied a reported permeation model for liposomes[31] to arrive at permeation rate constants (kp) and apparent permeability coefficients (Papp). The derivation of the mathematical relation (1), linking the fundamental permeability rate constant and permeability coefficient to experimental measurable kobs rate constants, the known total analyte and total FAR concentration, and the experimentally determined liposome radius (r), is shown in the Supplementary Information.1 Papp=kp⋅r/3=kobs/canalyte⋅cFAR⋅r/3 […]
The volume-to-surface correction factor r/3 accounts for the fact that the observed rates depend on the size, i.e., radius r, of the liposomal assembly. […] The initial-rate method can also be applied, see the Supplementary Information. Moreover, kobs/canalyte can be estimated by single-point measurements at selected canalyte concentration.
A solution of 2.5 mg/mL of POPC and 0.33 mg/mL of POPS in chloroform was purged with nitrogen and dried overnight under […] vacuum. […] The resulting FAR-loaded liposomes were separated from non-encapsulated species by size-exclusion chromatography (NAP-25 column), while maintaining the same buffer. The absence of non-encapsulated FAR was confirmed by adding a non-membrane-permeable species such as tryptophan to a fluorescence cuvette containing 25 µL of liposomes diluted in 1 mL HEPES (10 mM) buffer. Complete removal of non-encapsulated FAR is indicated by the absence of a significant fluorescence change upon Trp addition.
In a typical experiment, 20 µL of liposome solution loaded with FAR was diluted in 1 mL HEPES buffer (10 mM, pH 7.0) in a 1 mL quartz cuvette. An emission spectrum was recorded after 10 min of “equilibration time” on a Varian Eclipse spectrofluorometer thermostated at 22 °C with a water bath using λexc = 400 nm for FAR-1, λexc = 310 nm for FAR-2, and λexc = 330 nm for FAR-3. In the time-resolved experiments, the emission intensity at λobs = 450 nm for FAR-1, λobs = 370 nm for FAR-2, and λobs = 370 and 500 nm for FAR-3 (the latter is the emerging excimer band for certain FAR-3•analyte complexes) was recorded with an averaging time of 0.5 s. […] For single-point experiments, a full spectrum was recorded after a fixed time or several time intervals after analyte addition. […] Only FAR-analyte combinations were used for FARMA, for which no significant autofluorescence and competitive light absorption of the analyte occurred.
For each experiment, measurements from 6 injections were accumulated and the average of these traces was used for data analysis.
Calculation of the unimolecular permeation rate constants ( kp) and of the apparent permeability coefficients (Papp).
The passive diffusion (permeation) of small non-charged compounds follows a modified Fick’s law and can be expressed by a first order kinetics.1 Similar to first order chemical reactions, the kinetics curve can therefore be fitted monoexponentially to obtained the observed permeation rates (kobs). In our assay set-up, such an exponential fit is an approximation, since it neglects that a certain fraction of transported analyte is bound to the FAR and cannot exit the liposome. Nevertheless, the fit of the kinetic curves of the […]
approximation is justified.
As to `Oc1ccccc1O` [1,2-dihydroxybenzene], the “membrane permeability (in words)” value is listed as ““instantaneously” permeating”.
Same read-out and setting: under `COC(=O)[C@@H](N)Cc1c[nH]c2ccccc12` [TrpOMe, tryptophan methyl ester] stands “rather quickly permeating”.
Still for that read-out and setting: the same measure for `CNC[C@H](O)c1ccc(O)c(O)c1` [adrenaline]: “very slowly permeating”; for `NCCc1ccc(O)c(O)c1` [dopamine]: “very slowly permeating”; for `c1ccc2ccccc2c1` [naphthalene]: “permeating”.
Consider `OC[C@H]1O[C@@H](Oc2ccccc2)[C@H](O)[C@@H](O)[C@H]1O` [phenyl-β-D-galactopyranoside], for which the “membrane permeability (in words)” value is reported as “slowly permeating”.
As to `NCCc1ccc(O)cc1` [tyramine], the “membrane permeability (in words)” value is “pass the membrane within several minutes to hours”.

The same data set, now with this note: monoexponential fit; analyte 40 µM (bulk), FAR-2 ca. 500 µM in the liposome interior; 20% error.
`N#Cc1ccccc1O` [2CN-phenol, 2-cyanophenol]: the kobs worked out at 10 s–1.
On the same count and under the same terms, under `CCc1ccc(O)cc1` [4Et-phenol, 4-ethylphenol] stands 0.24 s–1.
On the same count and under the same terms, under `O=C1CCC(=O)N1c1ccccc1` [N-phenylsuccinimide] stands 1.1 s–1.
On the same count and under the same terms, under `c1ccc2[nH]cnc2c1` [benzimidazole] stands 2.7 s–1; under `NCCc1ccccc1` [phenethylamine], 0.22 s–1.
In the case of `CCC(=O)Nc1ccc(Cl)c(Cl)c1` [propanil], the kobs came out at 42 s–1.

The data set is the same for the next values; noted with them: not told, pH 7.
Take `Oc1ccccc1` [Phenol, phenol]: the Papp turned out to be 112 ×10⁻⁶ cm/s, the kobs came to 2.7 s–1, the “log(kobs)” value was determined as 0.4314 and the “time of FARMA signal response (t)” value was below 5 s.

The same data set, now with this note: slow response, without enzyme.
Turning to `OC[C@H]1O[C@@H](Oc2ccccc2)[C@H](O)[C@@H](O)[C@H]1O` [phenyl-β-D-galactopyranoside], the “time of FARMA signal response (t)” value is above 300 s.

Still in this data set, the particulars now being: source data of Fig. 5.
For `N#Cc1ccccc1O` [2CN-phenol, 2-cyanophenol], the “kobs” value is 10 and the “log(kobs)” value stood at 1.
Taken in the same sequence, the figures for `CCc1ccc(O)cc1` [4Et-phenol, 4-ethylphenol] were 0.24 and -0.6198.
For `O=C1CCC(=O)N1c1ccccc1` [N-phenylsuccinimide], in that order: 1.1 and 0.04139.
Taken in the same sequence, the figures for `c1ccc2[nH]cnc2c1` [benzimidazole] were 2.7 and 0.4314.
Regarding `NCCc1ccccc1` [phenethylamine], the “kobs” value came to 0.22 and the “log(kobs)” value was -0.6576.
On to `CCC(=O)Nc1ccc(Cl)c(Cl)c1` [propanil], for which the “kobs” value is 42 and the “log(kobs)” value was 1.623.

Tested on in another data set: not given
Test: not given
As to conditions: PAMPA; cited from earlier work. Background: The PAMPA barrier holds no transporters, so it reflects passive diffusion.
As for `Oc1ccccc1` [Phenol, phenol], the “Papp Literature” value is given as 47.
As to `NC(=O)C(N)Cc1c[nH]c2ccccc12` (stereo not shown) [TrpNH2, tryptophanamide], the “Papp Literature” value is recorded as 2.7 10^−6 cm s^−1.

For a further data set, the system named is FAR-2. Briefly: Fluorescence titration, FAR•analyte complex formation in homogeneous solution. The following applies: 10 mM HEPES buffer (pH 7), 1:1 binding model, error estimate ≤ 20%. As to the method: Fluorescence titrations were carried out in aqueous HEPES buffer (10 mM, pH 7, 22 °C) unless stated otherwise. To a solution of the FAR (typically at 10–30 μM) was stepwise added a solution of the analyte (typically up to 2 mM) and the fluorescence spectra were recorded. The normalized emissions at 450 nm (FAR-1) or at 370 nm (FAR-2) were fitted with an equation for a 1 : 1 binding by a least-square fit. The resulting affinity constants are reported in Supplementary Table 1. Representative titration plots are shown in Supplementary Fig. 1.
In the case of `Oc1ccc(O)cc1` [1,4-dihydroxybenzene], the Ka is given as 2.9 10^3 M−1.
Same read-out and setting: under `N#Cc1ccccc1O` [2CN-phenol, 2-cyanophenol] stands 5.8 10^3 M−1.
`CCOc1ccc(O)cc1` [4-ethoxyphenol]: the Ka is recorded as 1.0 10^3 M−1.
As for `COc1ccc(O)cc1` [4-methoxyphenol], the Ka is given as 2.4 10^3 M−1.
For `COc1ccc(B(O)O)cc1` [p-anisylboronic acid], the Ka is 4.8 10^3 M−1.
The same measure, in the same setting: the same measure for `O=C([O-])c1ccccc1.[Na+]` [sodium benzoate]: < 1 10^3 M−1.

The Papp is the rate of passage across a membrane or cell layer, normalised by area and donor concentration.
